Measured values reported in patent publication US10807992B2, “Single enantiomer antiparasitic compounds” (priority 2017, dated 2020).

Tested on: Rhipicephalus sanguineus
Experiment: In vitro contact activity against adult ticks (coated vial), R. sanguineus
Details: for mortality at 0.006 µM: Trial 3, dose 0.006 μM; for mortality at 0.024 µM: Trial 3, dose 0.024 μM; for mortality at 0.098 µM: Trial 3, dose 0.098 μM; for mortality at 0.39 µM: Trial 3, dose 0.39 μM; for mortality at 1.56 µM: Trial 3, dose 1.56 μM; for mortality at 6.25 µM: Trial 3, dose 6.25 μM; for mortality at 25 µM: Trial 3, dose 25 μM; for mortality at 100 µM: Trial 3, dose 100 μM
Procedure: Rhipicephalus sanguineus, Dermacentor variabilis, Amblyomma americanum, (Ecto Services, Inc., Henderson, N.C.) and Ixodes scapularis (Oklahoma State University, Stillwater, Okla.) aged between 2-4 weeks post molt were held in an environmental chamber at 24° C., 80% humidity with 12-hour light/dark cycles.
For tick assays, vial caps were pre-drilled with a single hole in the center of each cap to allow air exchange. A filter paper (Whatman Grade 540 2.1 cm) was placed in the lid of each vial. An aliquot from each compound stock was added to an acetone/triton solution to achieve the desired top doses for the study. Serial dilutions were conducted from the top dose (i.e. 100 ppm) to achieve the desired titration range for EC50 and EC90 determination. For R. sanguineus, D. variabilis, and A. americanum, the final DMSO concentration in each test vial was 0.5%. For I. scapularis, compounds were solubilized directly in an acetone/triton solution due to I. scapularis' sensitivity to DMSO. A 459 μL aliquot of each compound formulation was transferred to a vial containing a Whatman Grade 540 2.1 cm filter paper. Vials were immediately placed on an unheated roller unit to allow for an even coating of the vial walls. After vials were coated, 41 μL of each compound formulation was added to the filter paper embedded in each vial cap. Each cap was allowed to dry. The vials were loosely capped and allowed to dry for a minimum of four hours in a chemical fume hood.
Compounds tested were: the C1 racemate, C1 (R) enantiomer, and the C1 (S) enantiomer. For Trial 3, the C1 (R) enantiomer and the C1 (S) enantiomer were further chiral purified to achieve >99% purity.
Ten adult ticks were added to each vial and held at 24° C., 80% humidity with 12-hour light/dark cycles. Adult ticks were assessed for percent mortality at various time points between 2 hours and 48 hours post infestation. Ticks were stimulated on a heated roller unit and evaluated. Ticks showing no movement, or very slow and uncoordinated movement were noted as dead.

Work on `O=C(CC(F)(F)F)N1CC2(C1)OCc1cc(C3=NSC(c4cc(Cl)c(F)c(Cl)c4)(C(F)(F)F)C3)ccc12` (racemic) [C1 racemate, 1-[6-[5-(3,5-dichloro-4-fluoro-phenyl)-5-(trifluoromethyl)-4H-isothiazol-3-yl]spiro[1H-isobenzofuran-3,3′-azetidine]-1′-yl]-3,3,3-trifluoro-propan-1-one] yielded a mortality at 0.006 µM (2 h, Rep1) of 0%, a mortality at 0.006 µM (2 h, Rep2) of 0% and a mortality at 0.024 µM (2 h, Rep1) of 0%. For the same compound, the mortality at 0.024 µM (2 h, Rep2) was 0%, the mortality at 0.098 µM (2 h, Rep1) was 0% and the mortality at 0.098 µM (2 h, Rep2) was 0%. The mortality at 0.39 µM (2 h, Rep1) was 0%, the mortality at 0.39 µM (2 h, Rep2) was 0% and the mortality at 1.56 µM (2 h, Rep1) was 0%. For the same compound, the mortality at 1.56 µM (2 h, Rep2) was 0%, the mortality at 6.25 µM (2 h, Rep1) was 0% and the mortality at 6.25 µM (2 h, Rep2) was 0%. The mortality at 25 µM (2 h, Rep1) was 30%, the mortality at 25 µM (2 h, Rep2) was 10% and the mortality at 100 µM (2 h, Rep1) was 10%. For the same compound, the mortality at 100 µM (2 h, Rep2) was 0%, the mortality at 0.006 µM (6 h, Rep1) was 0% and the mortality at 0.006 µM (6 h, Rep2) was 0%. For the same compound, the mortality at 0.024 µM (6 h, Rep1) was 0%, the mortality at 0.024 µM (6 h, Rep2) was 0% and the mortality at 0.098 µM (6 h, Rep1) was 0%. It also gave a mortality at 0.098 µM (6 h, Rep2) of 0%, a mortality at 0.39 µM (6 h, Rep1) of 10% and a mortality at 0.39 µM (6 h, Rep2) of 0%. For the same compound, the mortality at 1.56 µM (6 h, Rep1) was 0%, the mortality at 1.56 µM (6 h, Rep2) was 0% and the mortality at 6.25 µM (6 h, Rep1) was 50%. It also gave a mortality at 6.25 µM (6 h, Rep2) of 20%, a mortality at 25 µM (6 h, Rep1) of 90% and a mortality at 25 µM (6 h, Rep2) of 100%. For the same compound, the mortality at 100 µM (6 h, Rep1) was 100%, the mortality at 100 µM (6 h, Rep2) was 100% and the mortality at 0.006 µM (12 h, Rep1) was 0%. It also gave a mortality at 0.006 µM (12 h, Rep2) of 0%, a mortality at 0.024 µM (12 h, Rep1) of 0% and a mortality at 0.024 µM (12 h, Rep2) of 0%. The mortality at 0.098 µM (12 h, Rep1) was 0%, the mortality at 0.098 µM (12 h, Rep2) was 0% and the mortality at 0.39 µM (12 h, Rep1) was 10%. The mortality at 0.39 µM (12 h, Rep2) was 0%, the mortality at 1.56 µM (12 h, Rep1) was 90% and the mortality at 1.56 µM (12 h, Rep2) was 50%. For the same compound, the mortality at 6.25 µM (12 h, Rep1) was 80%, the mortality at 6.25 µM (12 h, Rep2) was 80% and the mortality at 25 µM (12 h, Rep1) was 90%. The mortality at 25 µM (12 h, Rep2) was 100%, the mortality at 100 µM (12 h, Rep1) was 100% and the mortality at 100 µM (12 h, Rep2) was 100%.
With `O=C(CC(F)(F)F)N1CC2(C1)OCc1cc(C3=NS[C@](c4cc(Cl)c(F)c(Cl)c4)(C(F)(F)F)C3)ccc12` [C1 (R) enantiomer, (R)-1-[6-[5-(3,5-dichloro-4-fluoro-phenyl)-5-(trifluoromethyl)-4H-isothiazol-3-yl]spiro[1H-isobenzofuran-3,3′-azetidine]-1′-yl]-3,3,3-trifluoro-propan-1-one] the mortality at 0.006 µM (2 h, Rep1) was 0%, the mortality at 0.006 µM (2 h, Rep2) was 0% and the mortality at 0.024 µM (2 h, Rep1) was 0%. It also gave a mortality at 0.024 µM (2 h, Rep2) of 0%, a mortality at 0.098 µM (2 h, Rep1) of 0% and a mortality at 0.098 µM (2 h, Rep2) of 0%. It also gave a mortality at 0.39 µM (2 h, Rep1) of 0%, a mortality at 0.39 µM (2 h, Rep2) of 0% and a mortality at 1.56 µM (2 h, Rep1) of 0%. The mortality at 1.56 µM (2 h, Rep2) was 0%, the mortality at 6.25 µM (2 h, Rep1) was 0% and the mortality at 6.25 µM (2 h, Rep2) was 0%. It also gave a mortality at 25 µM (2 h, Rep1) of 0%, a mortality at 25 µM (2 h, Rep2) of 0% and a mortality at 100 µM (2 h, Rep1) of 0%. It also gave a mortality at 100 µM (2 h, Rep2) of 0%, a mortality at 0.006 µM (6 h, Rep1) of 0% and a mortality at 0.006 µM (6 h, Rep2) of 0%. The mortality at 0.024 µM (6 h, Rep1) was 0%, the mortality at 0.024 µM (6 h, Rep2) was 0% and the mortality at 0.098 µM (6 h, Rep1) was 0%. It also gave a mortality at 0.098 µM (6 h, Rep2) of 0%, a mortality at 0.39 µM (6 h, Rep1) of 0% and a mortality at 0.39 µM (6 h, Rep2) of 0%. For the same compound, the mortality at 1.56 µM (6 h, Rep1) was 0%, the mortality at 1.56 µM (6 h, Rep2) was 0% and the mortality at 6.25 µM (6 h, Rep1) was 0%. For the same compound, the mortality at 6.25 µM (6 h, Rep2) was 0%, the mortality at 25 µM (6 h, Rep1) was 0% and the mortality at 25 µM (6 h, Rep2) was 0%. For the same compound, the mortality at 100 µM (6 h, Rep1) was 0%, the mortality at 100 µM (6 h, Rep2) was 0% and the mortality at 0.006 µM (12 h, Rep1) was 0%. The mortality at 0.006 µM (12 h, Rep2) was 0%, the mortality at 0.024 µM (12 h, Rep1) was 0% and the mortality at 0.024 µM (12 h, Rep2) was 0%. The mortality at 0.098 µM (12 h, Rep1) was 0%, the mortality at 0.098 µM (12 h, Rep2) was 0% and the mortality at 0.39 µM (12 h, Rep1) was 0%. For the same compound, the mortality at 0.39 µM (12 h, Rep2) was 0%, the mortality at 1.56 µM (12 h, Rep1) was 0% and the mortality at 1.56 µM (12 h, Rep2) was 0%. The mortality at 6.25 µM (12 h, Rep1) was 0%, the mortality at 6.25 µM (12 h, Rep2) was 0% and the mortality at 25 µM (12 h, Rep1) was 0%. It also gave a mortality at 25 µM (12 h, Rep2) of 0%, a mortality at 100 µM (12 h, Rep1) of 0% and a mortality at 100 µM (12 h, Rep2) of 0%.
